From ChEMBL document CHEMBL1201862, “PubChem BioAssay data set” (2004)
Calls of active or inactive are those of the source.

How the values were obtained:
[1] = biological target: T1, E3 ubiquitin-protein ligase XIAP (Homo sapiens, UniProt P98170); assay: Counter Screen using XIAP-Bir3 for Chemical Antagonists of Bir1/2 domains of IAP-family anti-apoptotic proteins. [Related pubchem assays (depositor defined):AID1018, AID1449, AID1514, AID1638, AID1749, AID1750, AID488957, AID488963]
[2] = biological target: T1, E3 ubiquitin-protein ligase XIAP; assay: XIAP antagonists, biochemical, IAP family, fluorescence polarization (AID 1018); type: functional
[3] = biological target: T2, Voltage-gated N-type calcium channel alpha-1B subunit/Amyloid beta A4 precursor protein-binding family A member 1 (Homo sapiens, UniProt Q00975+Q02410); assay: disruptors of Mint-PDZ/N-type channel peptide interaction – biochemical, HTRF, SAR follow-up (AID 2489); type: functional
[4] = biological target: T2, Voltage-gated N-type calcium channel alpha-1B subunit/Amyloid beta A4 precursor protein-binding family A member 1; assay: disruptors of Mint-PDZ/N-type channel peptide interaction – biochemical, HTRF, set 2, SAR follow-up (AID 434980); type: functional
SUMO E1/E2 = SUMO E1/E2 (Homo sapiens, UniProt P63279+Q9UBE0+Q9UBT2); assay: SAR analysis of SUMOylation using HTRF in an in-Vitro dose response assay. [Related pubchem assays (depositor defined):AID2006, AID2011, AID2018, AID2069, AID2658]; type: functional
[5] = biological target: T2, Voltage-gated N-type calcium channel alpha-1B subunit/Amyloid beta A4 precursor protein-binding family A member 1; type: protein assay
[6] = biological target: Induced myeloid leukemia cell differentiation protein Mcl-1 (Homo sapiens, UniProt Q07820); type: functional
[7] = biological target: T2, Voltage-gated N-type calcium channel alpha-1B subunit/Amyloid beta A4 precursor protein-binding family A member 1; type: protein assay; remark: listed apart in the source
CHO-K1 = assay: (§1) Counterscreen for antagonists of the orexin 1 receptor (OX1R; HCRTR1): Homogeneous time resolved fluorescence (HTRF)-based cell-based dose response assay to identify antagonists of the parental CHO-K1 cell line. [Related pubchem assays (depositor defined):AID434989, AID435008, AID463079, AID485270, AID492963, AID492964, AID492965, AID493232, AID504699, AID504701]; type: functional; details: Cricetulus griseus
[8] = biological target: T3, Orexin/Hypocretin receptor type 1 (Homo sapiens, UniProt O43613); assay: Homogeneous Time Resolved Fluorescence (HTRF)-based cell-based high throughput dose response assay for antagonists of the orexin 1 receptor (OX1R; HCRTR1). [Related pubchem assays (depositor defined):AID434989, AID435008, AID463079, AID485270, AID492963, AID492964, AID492965, AID493232, AID504717, AID504718]; type: functional
T3 sequence (O43613 whole entry): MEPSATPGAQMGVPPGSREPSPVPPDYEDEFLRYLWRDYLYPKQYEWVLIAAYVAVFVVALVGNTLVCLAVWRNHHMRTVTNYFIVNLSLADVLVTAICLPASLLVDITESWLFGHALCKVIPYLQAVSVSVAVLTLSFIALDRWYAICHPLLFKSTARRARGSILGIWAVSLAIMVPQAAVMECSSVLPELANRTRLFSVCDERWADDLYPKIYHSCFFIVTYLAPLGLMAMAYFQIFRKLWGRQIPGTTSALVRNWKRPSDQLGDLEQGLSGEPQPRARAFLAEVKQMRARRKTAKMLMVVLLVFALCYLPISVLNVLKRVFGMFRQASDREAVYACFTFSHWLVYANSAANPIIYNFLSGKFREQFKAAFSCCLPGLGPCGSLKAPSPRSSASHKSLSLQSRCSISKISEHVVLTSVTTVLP

[9] = as §1, with “Fluorescence-based” for “Homogeneous time resolved fluorescence (HTRF)-based”, “cell-based high throughput” for “cell-based”, “CHO” for “CHO-K1”; type: functional
[10] = biological target: T3, Orexin/Hypocretin receptor type 1; assay: Fluorescence-based cell-based high throughput dose response assay for antagonists of the orexin 1 receptor (OX1R; HCRTR1). [Related pubchem assays (depositor defined):AID434989, AID435008, AID463079, AID485270, AID492963, AID492964, AID492965, AID493232, AID504717, AID504718]; type: functional
[11] = Luminescence Cell-Based Dose Response HTS to Identify Activators of Luciferase Translation or Activity in H4-C Neuroglioblastoma Cells. [Related pubchem assays: 1829 (Project Summary), 1814 (Primary HTS)]; type: functional
[12] = Luminescence Cell-Based Dose Response HTS to Identify Activators of 5'UTR Stem-Loop Driven Prion Protein mRNA Translation in H4-C Neuroglioblastoma Cells. [Related pubchem assays: 1829 (Project Summary), 1814 (Primary HTS)]; type: functional
[13] = Luminescence Cell-Based Dose Response HTS to Identify Inhibitors of Luciferase Translation or Activity in H4-C Neuroglioblastoma Cells. [Related pubchem assays: 1813 (Primary HTS), 1827 (Project Summary)]; type: functional
[14] = inhibitors of SNCA 5'UTR-driven reporter translation, confirmation, H4 neuroglioma cells, luminescence (AID 1988); type: functional, cell-based
[15] = Luminescence Cell-Based Dose HTS Response to Identify Inhibitors of 5'UTR Stem-Loop Driven Prion Protein mRNA Translation in H4-C Neuroglioblastoma Cells. [Related pubchem assays (depositor defined):AID1814, AID1827]; type: functional
[16] = Luminescence Cell-Based Dose Confirmation HTS to Identify Inhibitors of 5'UTR Stem-Loop Driven Alpha-Synuclein mRNA Translation in H4 Neuroglioblastoma Cells. [Related pubchem assays: 1827 (Project Summary), 1813 (Primary HTS)]; type: functional
[17] = inhibitors of firefly luciferase expression or activity, dose response, H4 neuroglioma cells, luminescence (AID 1990); type: functional, cell-based
[18] = Luminescence Cell-Based Dose Response HTS to Identify Inhibitors of 5'UTR Stem-Loop Driven Prion Protein mRNA Translation in H4 Neuroglioblastoma Cells. [Related pubchem assays: 1827 (Project Summary), 1813 (Primary HTS)]; type: functional
[19] = Luminescence Cell-Based Dose Retest to Confirm Activators of 5'UTR Stem-Loop Driven Alpha-Synuclein mRNA Translation in H4 Neuroglioblastoma Cells. [Related pubchem assays (depositor defined):AID1813, AID1829]; type: functional
Genome polyprotein = Genome polyprotein (dengue virus type 2, UniProt P29990); assay: Dengue-2 NS5 methyltransferase inhibitors, primary screen, biochemical, confirmation dose response (AID 588689); type: functional
[20] = biological target: Lysine-specific demethylase 4C (Homo sapiens, UniProt Q9H3R0); assay: GASC-1 (JMJD2C) histone demethylase inhibitors, dose response, biochemical, DELFIA europium, cherry-picked samples (AID 488835); type: functional

T2 sequence (Q00975 whole entry): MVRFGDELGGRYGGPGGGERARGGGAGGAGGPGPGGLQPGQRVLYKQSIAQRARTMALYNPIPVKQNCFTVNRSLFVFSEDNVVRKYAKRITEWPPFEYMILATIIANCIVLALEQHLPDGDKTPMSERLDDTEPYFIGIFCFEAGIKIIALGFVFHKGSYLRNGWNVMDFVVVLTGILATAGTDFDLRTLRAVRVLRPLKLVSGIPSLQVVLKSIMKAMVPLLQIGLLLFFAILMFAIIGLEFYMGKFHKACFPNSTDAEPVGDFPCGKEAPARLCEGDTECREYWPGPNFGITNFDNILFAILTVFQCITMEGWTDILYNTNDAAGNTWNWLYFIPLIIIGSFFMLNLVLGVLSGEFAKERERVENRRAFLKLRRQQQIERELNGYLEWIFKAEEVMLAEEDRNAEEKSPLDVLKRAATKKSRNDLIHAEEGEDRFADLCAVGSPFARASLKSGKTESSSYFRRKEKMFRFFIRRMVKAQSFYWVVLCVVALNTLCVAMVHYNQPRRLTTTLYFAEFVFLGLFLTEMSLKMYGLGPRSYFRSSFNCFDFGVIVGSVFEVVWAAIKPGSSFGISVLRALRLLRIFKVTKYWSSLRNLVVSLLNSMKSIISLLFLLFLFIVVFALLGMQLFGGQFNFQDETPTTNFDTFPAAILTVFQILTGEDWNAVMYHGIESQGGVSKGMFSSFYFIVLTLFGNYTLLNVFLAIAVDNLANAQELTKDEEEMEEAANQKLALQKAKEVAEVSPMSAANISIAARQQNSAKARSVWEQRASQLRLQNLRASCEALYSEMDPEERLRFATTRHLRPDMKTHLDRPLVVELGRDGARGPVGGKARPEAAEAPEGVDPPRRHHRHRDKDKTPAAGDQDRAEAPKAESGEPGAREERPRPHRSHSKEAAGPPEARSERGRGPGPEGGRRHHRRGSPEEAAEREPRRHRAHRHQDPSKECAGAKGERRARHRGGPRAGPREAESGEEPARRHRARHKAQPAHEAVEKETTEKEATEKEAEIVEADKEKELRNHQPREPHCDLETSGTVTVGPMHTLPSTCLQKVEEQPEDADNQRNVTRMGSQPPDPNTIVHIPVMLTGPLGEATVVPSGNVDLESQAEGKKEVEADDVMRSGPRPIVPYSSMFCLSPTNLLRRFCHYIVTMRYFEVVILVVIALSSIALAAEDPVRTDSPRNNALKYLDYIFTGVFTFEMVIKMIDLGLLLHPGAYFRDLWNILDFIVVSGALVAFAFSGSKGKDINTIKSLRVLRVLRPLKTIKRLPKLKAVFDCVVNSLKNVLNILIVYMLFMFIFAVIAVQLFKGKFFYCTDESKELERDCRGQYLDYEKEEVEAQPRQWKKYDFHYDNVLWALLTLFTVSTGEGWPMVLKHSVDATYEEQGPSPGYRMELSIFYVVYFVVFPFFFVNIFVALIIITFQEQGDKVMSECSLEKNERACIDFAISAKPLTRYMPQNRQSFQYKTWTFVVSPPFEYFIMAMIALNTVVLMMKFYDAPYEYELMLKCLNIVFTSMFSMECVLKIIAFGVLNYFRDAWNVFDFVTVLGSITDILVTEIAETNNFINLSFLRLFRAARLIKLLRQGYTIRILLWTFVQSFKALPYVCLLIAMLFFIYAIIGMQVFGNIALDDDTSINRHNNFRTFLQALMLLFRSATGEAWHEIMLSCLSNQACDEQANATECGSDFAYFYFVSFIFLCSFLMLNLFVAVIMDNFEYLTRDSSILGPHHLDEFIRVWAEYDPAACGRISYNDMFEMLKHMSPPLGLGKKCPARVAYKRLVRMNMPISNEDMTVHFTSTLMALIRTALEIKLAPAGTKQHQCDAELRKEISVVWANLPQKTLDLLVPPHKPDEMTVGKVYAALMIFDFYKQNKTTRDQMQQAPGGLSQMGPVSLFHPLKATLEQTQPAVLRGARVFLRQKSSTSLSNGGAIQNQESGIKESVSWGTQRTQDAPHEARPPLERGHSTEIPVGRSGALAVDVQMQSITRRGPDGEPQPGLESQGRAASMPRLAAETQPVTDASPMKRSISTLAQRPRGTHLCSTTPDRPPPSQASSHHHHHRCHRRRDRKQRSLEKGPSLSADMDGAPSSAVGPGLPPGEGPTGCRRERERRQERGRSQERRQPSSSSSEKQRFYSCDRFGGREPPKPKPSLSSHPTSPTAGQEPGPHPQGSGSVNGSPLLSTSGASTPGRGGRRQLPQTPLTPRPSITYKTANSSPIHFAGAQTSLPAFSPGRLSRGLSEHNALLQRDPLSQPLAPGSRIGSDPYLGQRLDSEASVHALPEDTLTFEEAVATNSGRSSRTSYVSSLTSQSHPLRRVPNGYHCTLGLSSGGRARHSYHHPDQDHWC
T2 sequence (Q02410 whole entry): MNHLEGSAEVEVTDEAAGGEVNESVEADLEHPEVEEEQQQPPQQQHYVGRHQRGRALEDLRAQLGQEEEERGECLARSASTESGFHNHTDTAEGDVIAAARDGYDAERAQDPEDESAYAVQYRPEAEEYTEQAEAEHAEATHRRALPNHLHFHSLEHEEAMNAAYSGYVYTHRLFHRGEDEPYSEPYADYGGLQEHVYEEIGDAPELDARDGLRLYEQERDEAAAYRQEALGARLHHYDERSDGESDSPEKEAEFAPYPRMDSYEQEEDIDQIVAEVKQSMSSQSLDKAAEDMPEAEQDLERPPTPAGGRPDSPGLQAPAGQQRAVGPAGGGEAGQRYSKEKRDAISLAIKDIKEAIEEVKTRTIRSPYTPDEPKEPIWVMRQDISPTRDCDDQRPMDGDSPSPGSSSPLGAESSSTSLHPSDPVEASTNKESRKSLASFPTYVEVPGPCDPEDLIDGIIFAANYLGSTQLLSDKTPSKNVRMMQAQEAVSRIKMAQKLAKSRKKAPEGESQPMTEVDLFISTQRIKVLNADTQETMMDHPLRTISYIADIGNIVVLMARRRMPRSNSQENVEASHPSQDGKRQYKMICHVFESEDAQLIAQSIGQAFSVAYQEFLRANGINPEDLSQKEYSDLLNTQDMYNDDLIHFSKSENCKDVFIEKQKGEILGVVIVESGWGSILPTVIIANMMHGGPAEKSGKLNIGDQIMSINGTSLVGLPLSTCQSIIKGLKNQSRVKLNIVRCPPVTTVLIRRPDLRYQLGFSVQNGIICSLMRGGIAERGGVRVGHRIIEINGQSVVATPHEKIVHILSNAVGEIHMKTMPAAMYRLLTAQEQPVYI
T1 sequence (P98170 whole entry): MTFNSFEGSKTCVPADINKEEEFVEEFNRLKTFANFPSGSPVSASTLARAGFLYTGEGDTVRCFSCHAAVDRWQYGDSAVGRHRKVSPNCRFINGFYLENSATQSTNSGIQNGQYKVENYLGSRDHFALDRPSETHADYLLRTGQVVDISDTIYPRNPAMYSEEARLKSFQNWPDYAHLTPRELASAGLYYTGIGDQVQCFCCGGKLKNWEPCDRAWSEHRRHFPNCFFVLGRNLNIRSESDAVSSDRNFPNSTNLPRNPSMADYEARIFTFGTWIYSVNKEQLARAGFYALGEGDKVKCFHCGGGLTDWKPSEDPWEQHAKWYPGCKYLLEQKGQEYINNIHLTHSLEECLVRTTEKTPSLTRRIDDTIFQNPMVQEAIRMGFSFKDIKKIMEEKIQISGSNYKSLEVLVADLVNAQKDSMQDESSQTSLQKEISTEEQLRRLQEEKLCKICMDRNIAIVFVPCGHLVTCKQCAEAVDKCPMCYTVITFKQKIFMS
Chain of SUMO E1/E2 (Q9UBE0 whole entry): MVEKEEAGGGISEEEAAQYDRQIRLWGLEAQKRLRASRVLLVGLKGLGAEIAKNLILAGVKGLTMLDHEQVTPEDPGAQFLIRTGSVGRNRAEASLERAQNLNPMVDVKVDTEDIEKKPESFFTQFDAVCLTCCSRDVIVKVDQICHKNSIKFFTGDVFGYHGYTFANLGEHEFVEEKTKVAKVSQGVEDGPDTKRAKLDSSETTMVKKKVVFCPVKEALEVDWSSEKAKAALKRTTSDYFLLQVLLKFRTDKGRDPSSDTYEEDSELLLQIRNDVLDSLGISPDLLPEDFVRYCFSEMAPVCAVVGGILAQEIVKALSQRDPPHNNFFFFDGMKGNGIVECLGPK
Chain of SUMO E1/E2 (Q9UBT2 whole entry): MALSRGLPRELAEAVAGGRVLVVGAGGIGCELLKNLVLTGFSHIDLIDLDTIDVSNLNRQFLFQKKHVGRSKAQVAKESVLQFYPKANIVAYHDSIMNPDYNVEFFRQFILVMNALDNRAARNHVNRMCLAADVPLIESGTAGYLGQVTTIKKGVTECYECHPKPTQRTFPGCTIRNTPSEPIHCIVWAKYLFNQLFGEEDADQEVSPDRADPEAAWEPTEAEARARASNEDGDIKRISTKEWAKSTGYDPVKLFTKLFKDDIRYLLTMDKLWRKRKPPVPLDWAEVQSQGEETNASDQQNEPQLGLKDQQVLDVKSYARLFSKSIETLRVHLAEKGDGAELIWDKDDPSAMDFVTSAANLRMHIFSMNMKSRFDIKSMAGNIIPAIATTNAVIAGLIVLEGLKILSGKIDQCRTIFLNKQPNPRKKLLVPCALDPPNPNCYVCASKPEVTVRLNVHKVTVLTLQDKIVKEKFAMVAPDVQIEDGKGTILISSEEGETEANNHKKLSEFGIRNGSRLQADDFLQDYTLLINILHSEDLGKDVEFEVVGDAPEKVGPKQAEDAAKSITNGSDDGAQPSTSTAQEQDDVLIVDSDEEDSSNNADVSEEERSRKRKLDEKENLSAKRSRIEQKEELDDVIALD
Chain of SUMO E1/E2 (P63279 whole entry): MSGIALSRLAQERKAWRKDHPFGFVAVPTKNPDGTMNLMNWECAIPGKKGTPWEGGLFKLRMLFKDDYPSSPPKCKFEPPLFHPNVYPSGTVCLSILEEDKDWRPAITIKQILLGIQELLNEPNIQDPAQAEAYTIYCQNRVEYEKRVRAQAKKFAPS

Which IC50 [1] does the source give for `CC(C)(Nc1ccccc1)C(=O)c1ccccc1` here?
Its IC50 is > 100 µM (inactive).

And the IC50 [2]?
The IC50 was > 100 µM (not active).

For `CCNC(=O)COC(=O)c1cc(-c2ccco2)nc2ccccc12`, which IC50 [3] is on record?
Its IC50 is 18.5 µM (active).

And the IC50 [4]?
The IC50 was 13.3 µM (active).

And the IC50 (SUMO E1/E2)?
The IC50 was 2.63 µM (active).

And the IC50 [5]?
The IC50 was 2.82 µM (active).

And the IC50 [6]?
Its IC50 is 4.39 µM (active).

What about the IC50 [7] of the same compound?
Its IC50 is 33.6 µM (active).

With `COc1cc2ccccc2cc1C(=O)Nc1ccc(N2CCOCC2)cc1` as the compound, how does the IC50 (CHO-K1) read?
Its IC50 is > 66.3 µM (inactive).

What about the IC50 [8] of the same compound?
The IC50 was 8.59 µM (active).

And the IC50 [9]?
Its IC50 is > 49.8 µM (inactive).

And the IC50 [10]?
Its IC50 is > 49.8 µM (inactive).

What does the source list for `COc1ccccc1CNC(=O)CNC(=O)c1cc(-c2ccco2)nc2ccccc12`?
IC50 [3]: 23.3 µM (active); IC50 [4]: > 56.8 µM (inactive); IC50 (SUMO E1/E2): 3.37 µM (active)

With `Cc1cccc(N(C)S(=O)(=O)c2ccc(-c3cc(C)no3)s2)c1` as the compound, how does the EC50 [11] read?
The EC50 was 6.81 µM (inconclusive).

And the EC50 [12]?
Its EC50 is 1.15 µM (inconclusive).

And the EC50 [13]?
The EC50 was 6.81 µM (active).

And the EC50 [14]?
Its EC50 is 155 nM (active).

And the EC50 [15]?
Its EC50 is 1.15 µM (active).

And the EC50 [16]?
The EC50 was 33.4 µM (active).

What about the EC50 [17] of the same compound?
The EC50 was 9.86 µM (active).

What about the EC50 [18] of the same compound?
The EC50 was 10.4 µM (active).

And the EC50 [19]?
The EC50 was 33.4 µM (inconclusive).

With `Cc1cc(C)cc(OCCOc2cccc(C=C3C(=O)NC(=O)NC3=O)c2)c1` as the compound, how does the IC50 (Genome polyprotein) read?
The IC50 was 46.9 µM (active).

What about the AC50 [20] of the same compound?
Its AC50 is > 60 µM (inactive).
